In publication PMC11558128 (Advanced Science, 2024):
Positions of bridges follow the written chain, without caps; N, C: chain ends. Residues, ends and D or L forms follow the SMILES beside them.

What was measured:
[1] = biological target: hERG (Homo sapiens, UniProt Q12809); assay: in vitro; conditions: pH 7.4, SEM
[2] = test system: ICR mice; assay: Forced swimming test; assay type: in vivo, mouse; conditions: 2 mg kg-1 i.p.; vs saline; n = 5, p = 0.8413
Method: Forced Swimming Test: ICR mice (weight 18–20 g, 6–8 weeks, both sex) were subjected to forced swimming training for 8 min per day over a span of 4 days. […] On the 5th day, the remaining mice were randomly assigned to one of two groups: Saline (3 males and 2 females) and the 2 mg kg^−1 mGpTx1‐SA (3 males and 2 females). All groups received intraperitoneal administration and were allowed 20 min for the drug to take effect before behavioral tests commenced. Swimming time was recorded for a duration of 4 min within a 6‐minute timeframe following drug administration.

Sequence of hERG (Q12809 whole entry): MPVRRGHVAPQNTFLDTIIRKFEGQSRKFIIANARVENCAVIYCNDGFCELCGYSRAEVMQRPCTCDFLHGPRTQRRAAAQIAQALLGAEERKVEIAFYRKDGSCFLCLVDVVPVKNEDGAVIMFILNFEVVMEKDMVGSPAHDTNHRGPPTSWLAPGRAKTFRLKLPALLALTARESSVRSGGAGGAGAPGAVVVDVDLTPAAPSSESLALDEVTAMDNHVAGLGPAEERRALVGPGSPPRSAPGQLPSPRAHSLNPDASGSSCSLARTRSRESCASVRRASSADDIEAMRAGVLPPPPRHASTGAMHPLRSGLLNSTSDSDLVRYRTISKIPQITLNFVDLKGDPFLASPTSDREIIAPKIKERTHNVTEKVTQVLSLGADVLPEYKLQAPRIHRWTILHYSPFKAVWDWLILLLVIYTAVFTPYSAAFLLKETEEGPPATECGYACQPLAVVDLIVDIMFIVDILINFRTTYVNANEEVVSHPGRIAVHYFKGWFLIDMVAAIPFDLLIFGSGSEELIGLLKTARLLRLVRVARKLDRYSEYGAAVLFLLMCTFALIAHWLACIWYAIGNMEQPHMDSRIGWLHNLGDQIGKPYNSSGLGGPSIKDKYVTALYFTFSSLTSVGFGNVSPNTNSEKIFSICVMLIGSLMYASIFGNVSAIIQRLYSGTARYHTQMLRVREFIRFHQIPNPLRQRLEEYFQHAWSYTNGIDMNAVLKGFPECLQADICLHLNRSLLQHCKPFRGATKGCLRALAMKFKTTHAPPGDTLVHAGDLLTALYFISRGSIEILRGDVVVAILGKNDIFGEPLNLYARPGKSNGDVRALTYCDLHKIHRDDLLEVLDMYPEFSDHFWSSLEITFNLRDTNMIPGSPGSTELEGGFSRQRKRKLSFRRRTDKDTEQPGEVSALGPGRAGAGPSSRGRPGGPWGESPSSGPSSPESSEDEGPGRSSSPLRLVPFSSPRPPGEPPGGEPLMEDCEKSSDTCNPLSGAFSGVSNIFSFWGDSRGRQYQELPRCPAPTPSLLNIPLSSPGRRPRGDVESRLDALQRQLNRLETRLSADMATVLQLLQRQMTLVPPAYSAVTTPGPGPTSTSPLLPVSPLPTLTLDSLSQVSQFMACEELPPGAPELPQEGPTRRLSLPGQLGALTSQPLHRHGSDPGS

| Compound | IC50 [1] [nM] | time spent on swimming [2] |
| --- | --- | --- |
| CSCC[C@@H]1NC(=O)CNC(=O)[C@H](CCC(=O)O)NC(=O)[C@@H]2CSSC[C@H](NC(=O)[C@@H](N)Cc3ccc(O)cc3)C(=O)N[C@@H](CCC(N)=O)C(=O)N[C@@H](CCCCN)C(=O)N[C@@H](Cc3c[nH]c4ccccc34)C(=O)N[C@@H](CCSC)C(=O)N[C@@H](Cc3c[nH]c4ccccc34)C(=O)N[C@@H]([C@@H](C)O)C(=O)N[C@H]3CSSC[C@H](NC(=O)[C@H](C(C)C)NC1=O)C(=O)N[C@@H](CCCNC(=N)N)C(=O)N[C@@H](CC(C)C)C(=O)N[C@@H](Cc1c[nH]c4ccccc14)C(=O)N[C@H](C(=O)N[C@@H](CCCCN)C(=O)N[C@@H](CCCCN)C(=O)N[C@@H](CCCCN)C(=O)N[C@@H](CC(C)C)C(=O)N[C@@H](Cc1c[nH]c4ccccc14)C(=O)O)CSSC[C@H](NC(=O)[C@H](CCCCN)NC(=O)[C@H](CCCNC(=N)N)NC(=O)[C@H](CCC(=O)O)NC(=O)[C@H](CO)NC(=O)[C@H](CC(=O)O)NC3=O)C(=O)N2 [ProTx-II] | 29.7 ± 2.8 |  |
| CC[C@H](C)[C@@H]1NC(=O)[C@@H]2CSSC[C@@H]3NC(=O)[C@H](C(C)C)NC(=O)[C@H](CC(C)C)NC(=O)[C@H](CC(N)=O)NC(=O)[C@@H]4CCCN4C(=O)[C@H](CCCNC(=N)N)NC(=O)[C@H](CSSC[C@H](NC(=O)[C@@H](N)CC(=O)O)C(=O)N[C@@H](CC(C)C)C(=O)NCC(=O)N[C@@H](C)C(=O)N[C@@H](Cc4ccccc4)C(=O)N[C@@H](CCCNC(=N)N)C(=O)N[C@@H](CCCCN)C(=O)N2)NC(=O)[C@H](CSSC[C@@H](C(=O)N[C@@H](CCCCN)C(=O)N[C@@H](Cc2ccc(O)cc2)C(=O)N[C@H](C(=O)N[C@@H](Cc2ccccc2)C(N)=O)C(C)C)NC(=O)[C@H](Cc2c[nH]c4ccccc24)NC(=O)[C@H](CCCNC(=N)N)NC(=O)[C@H](Cc2c[nH]cn2)NC(=O)[C@H](C)NC(=O)[C@H](CO)NC(=O)[C@H](CO)NC3=O)NC(=O)[C@H](CCCCN)NC(=O)[C@H](CC(=O)O)NC(=O)[C@H](CC(N)=O)NC(=O)[C@H](CC(=O)O)NC(=O)[C@@H]2CCCN2C1=O [mGpTx1-SA] (H-DCLGAFRKCIPDNDKCCRPNLVCSSAHRWCKYVF-NH2; disulfide 2-17, 9-23, 16-30) |  | did not affect |
